Laboratory results: paper PMC3964211, “Pharmacokinetic modeling optimizes inhibition of the ‘undruggable’ EWS-FLI1 transcription factor in Ewing Sarcoma” (Oncotarget, 2013)

Assays:
[1] = tested on: A4573 xenograft; experiment: Orthotopic mouse xenograft model, A4573, IP dosing; format: in vivo, SCID/bg mice; details: for Tumor histology (hematoxylin and eosin): A4573 tumors, two hours following the 6th dose; for Tumor histology (hematoxylin and eosin) / Regression of tumor volume over 3 days: BID IP 400 mg/kg; for Regression of tumor volume over 3 days: A4573 xenograft, 3-day, six-dose
Protocol: (§1) A series of models that combined results from in vitro colony assays and in vivo PK data were developed to evaluate several potential dosing schemes for the mice (Supplementary Figures 1A-E). We selected an IP dosing strategy (twice daily (BID) injections of […] racemic mixture) that would maintain a 3 ¼M plasma levels for greater than 72 hours in the mice (Figure 3A). With this IP dosing regimen, xenograft growth of A4573 was 70% less in the YK-4-279 treatment group compared to vehicle control (Figure 3B, p=0.04). […] To confrm the impact of YK-4-279 treatment on xenograft growth, mice with SK-ES xenografts were treated with racemic, (S), or (R)-YK-4-279 until control tumors reached 1 cm^3. Xenograft growth was reduced for those mice receiving both racemic and (S)-YK-4-279 over the control (Figure 3D, p=0.02 and p=0.003, respectively). […] Tumors were analyzed for drug levels of racemic, (R)-, and (S)-YK-4-279. Three of four mice treated with racemic compound had tumor levels of (S)-YK-4-279 that ranged from ~12-35 ¼g eq/g, which correlated with tumor growth ratios of less than 1.0, indicating response to the drug (Figure 3F). Those animals treated with the active (S)-YK-4-279 levels had tumor levels that were below 10 ¼g eq/g (Figure 3F). Tumor levels of (R)-YK-4-279 are also provided (Supplementary Figure 1F).
(§2) In order to evaluate tumors from animals treated in a similar fashion, including resection prior to central necrosis in controls, a 3-day, six-dose, experiment was executed. Treatment was initiated with racemic, (S)-, or (R)-YK-4-279 using BID IP administration at 400 mg/kg when tumors were well established at a volume of 250 to 300 mm^3. Both ES models treated with either racemic or (S)-YK-4-279 regressed by 25–30% of tumor volume over 3 days, while tumors grew in control and (R)-YK-4-279 treated animals (Figures 4A and B). Two hours following the 6th dose, mice were euthanized for tumor analysis. […] To confirm the apoptotic cell death, sections from A4573 tumors were stained with TUNEL (Figures 4D) and there was a 3 – 4 fold increase in TUNEL-positive cells treated with (S)-YK-4-279 compared to (R)-YK-R-279 treated tumors (Figure 4E). […] Levels of each enantiomer were measured in tumor samples and (S)-YK-4-279 levels correlated with clinical regression (Supplemental Figure 2B–E).
(§3) Two million A4573 or SK-ES Ewing's sarcoma cells in 0.1 mL were injected into an orthotopic paraosseous location, adjacent to the left proximal tibia, in 5-week-old female severe combined immunodeficient-beige (SCID/bg) mice (Harlan Laboratories, Inc., Indianapolis, IN). After primary tumors reached 250 – 300 mm^3 size, mice were randomized and received intraperitoneal injection (IP) with vehicle control (0.25% Lecithin solution or DMSO), (S)-YK-4-279, (R)-YK-4-279 or racemic YK-4-279 at a dose of 400 mg/kg twice a day (BID) for 7 days in a week. The tumor volume was determined by the formula (D × d2/6) × p, where D was the longer diameter and d was the shorter diameter. Tumor volume was monitored every day by caliper until the tumor size reaches 1cm^3. Mice were euthanized and primary tumors were collected. For the pharmacodynamics study mice were randomized and received 6 doses treatment with vehicle control (0.25% Lecithin solution or DMSO), (S)-YK-4-279, (R)-YK-4-279 or racemic YK-4-279 at a dose of 400 mg/kg twice a day (BID). Mice were euthanized after 2 hours of last 6th dosing and primary tumors were collected. […]

[2] = tested on: SK-ES xenograft; experiment: Orthotopic mouse xenograft model, SK-ES, IP dosing; format: in vivo; details: for Regression of tumor volume over 3 days: SK-ES xenograft, 3-day, six-dose
Protocol: as §1, §2
Two million A4573 or SK-ES Ewing's sarcoma cells in 0.1 mL were injected into an orthotopic paraosseous location, adjacent to the left proximal tibia, in 5-week-old female severe combined immunodeficient-beige (SCID/bg) mice (Harlan Laboratories, Inc., Indianapolis, IN). After primary tumors reached 250 – 300 mm^3 size, mice were randomized and received intraperitoneal injection (IP) with vehicle control (0.25% Lecithin solution or DMSO), (S)-YK-4-279, (R)-YK-4-279 or racemic YK-4-279 at a dose of 400 mg/kg twice a day (BID) for 7 days in a week. The tumor volume was determined by the formula (D × d2/6) × p, where D was the longer diameter and d was the shorter diameter. Tumor volume was monitored every day by caliper until the tumor size reaches 1cm^3. Mice were euthanized and primary tumors were collected. For the pharmacodynamics study mice were randomized and received 6 doses treatment with vehicle control (0.25% Lecithin solution or DMSO), (S)-YK-4-279, (R)-YK-4-279 or racemic YK-4-279 at a dose of 400 mg/kg twice a day (BID). Mice were euthanized after 2 hours of last 6th dosing and primary tumors were collected. Animal studies were approved by an Institutional Animal Care and Use Committee of the Georgetown University.
The plasma and tumor sample analysis was performed using calibration standards and Quality Control (QC) samples prepared in control rat or mouse plasma and tumor tissues. Plasma and tumor calibration standards were prepared from stock solutions of YK-4-279. […]

[3] = tested on: caveolin-1; experiment: Caveolin-1 IHC staining of xenograft tumors; format: in vivo, SCID/bg mice; details: xenograft tumors of mice treated BID IP 400 mg/kg, 3 days
Protocol: We evaluated the effect of EWS-FLI1 in animals treated with YK-4-279 upon caveolin-1, a recognized direct gene target whose expression is increased by EWS-FLI1 [22, 23]. […] In addition, the staining pattern changes from membraneous to a more diffuse pattern (Figure 5A).
as §3, with “collected.” for “collected. For the pharmacodynamics study mice were randomized and received 6 doses treatment with vehicle control (0.25% Lecithin solution or DMSO), (S)-YK-4-279, (R)-YK-4-279 or racemic YK-4-279 at a dose of 400 mg/kg twice a day (BID). Mice were euthanized after 2 hours of last 6th dosing and primary tumors were collected.”
Five micron sections from formalin fxed paraffin embedded tissues were de-paraffinized with xylenes and rehydrated through a graded alcohol series. […] The sections were evaluated, in blinded fashion two times, by a pathologist (B.K.).

[4] = tested on: A4573 cells; experiment: Time point re-plating (colony formation) assay; format: cell-based; details: for Colony counts: then replated without YK-4-279
Protocol: We determined the replating efficiency of A4573 cells after 12–84 hours of treatment with 3 ¼M YK-4-279. Cells were treated for the indicated exposure time then replated without YK-4-279 to assay for colony formation (Figure 1A).
A4573 cells were plated at a density of 2×10^5 cells/dish in 60 mm dishes and incubated for 8 hours before treatment start with 3 ¼M racemic YK-4-279. Cells were removed with trypsin at their respective treatment time, cell suspensions were centrifuged, and cells were resuspended in 500 ¼l of media. One hundred microliters of cell suspension was plated in each 10 cm dish (triplicates) with 12 ml of media. Dishes were incubated for 1 week before staining with crystal violet stain. Colonies were counted using Nikon NIS Elements BR Software.

[5] = A4573 cells, 3 ¼M YK-4-279, 84 hours exposure

| SMILES | Tumor histology (hematoxylin and eosin) [1] | Regression of tumor volume over 3 days [1] | Regression of tumor volume over 3 days ([2]; BID IP 400 mg/kg) | Caveolin-1 immunohistochemical staining [3] | Decrease in colony growth between the 24 and 36 hour time points ([4]; A4573 cells, 3 ¼M YK-4-279) [fold] | Colony counts ([4]; A4573 cells, 3 ¼M YK-4-279, 24 hour exposure) [colonies] | Colony counts ([4]; A4573 cells, 3 ¼M YK-4-279, 72 hours exposure) [colonies] | Drop in colonies from the 24 hour time point [4, 5] [%] | Colony counts [4, 5] [colonies] | Growth of surviving colonies replated in continuous presence of compound ([4]; colonies from 72 and 84 hours harvested and replated in continuous presence of 3 ¼M YK-4-279) | Xenograft growth less than vehicle control ([1]; A4573 xenograft mice, BID IP racemic mixture (375 mg/kg in text, 400 mg/kg in Figure 3 legend), p=0.04) [%] | Overall survival ([2]; SK-ES xenograft mice, BID IP 400 mg/kg, p=0.013 vs control) | Xenograft growth less than control group ([2]; SK-ES xenograft mice, BID IP racemic mixture (375 mg/kg in text, 400 mg/kg in Figure 3 legend), p=0.02) [%] | Xenograft growth over the control ([2]; SK-ES xenografts, BID IP 400 mg/kg until control tumors reached 1 cm^3) | Tumor growth ratios ([2]; SK-ES xenografts, three of four mice treated with racemic compound) |
| --- | --- | --- | --- | --- | --- | --- | --- | --- | --- | --- | --- | --- | --- | --- | --- |
| COc1ccc(C(=O)C[C@]2(O)C(=O)Nc3c(Cl)ccc(Cl)c32)cc1 [(R)-YK-4-279] | healthy tumor cells, but fewer mitotic figures than the DMSO control | tumors grew | tumors grew | expected membrane caveolin-1 expression |  |  |  |  |  |  |  |  |  |  |  |
| COc1ccc(C(=O)CC2(O)C(=O)Nc3c(Cl)ccc(Cl)c32)cc1 (stereo not shown) [YK-4-279] | vacuolar cell death and nuclear fragmentation consistent with apoptosis | 25–30% | 25–30% | reduced caveolin-1 staining | 3 | 2229±101 | 53 | 98.9 | 25±12 | no growth was observed | 70 | improved overall survival | 70 | reduced | less than 1.0 |
